Target: Mtb PafA (Mycobacterium tuberculosis, UniProt P9WNU7)
Experiment: fluorescent pupylation assay of PanB with 5-carboxyfluorescein-cys-Pup^E
Format: biochemical

Sequence of Mtb PafA (P9WNU7 whole entry, looked up): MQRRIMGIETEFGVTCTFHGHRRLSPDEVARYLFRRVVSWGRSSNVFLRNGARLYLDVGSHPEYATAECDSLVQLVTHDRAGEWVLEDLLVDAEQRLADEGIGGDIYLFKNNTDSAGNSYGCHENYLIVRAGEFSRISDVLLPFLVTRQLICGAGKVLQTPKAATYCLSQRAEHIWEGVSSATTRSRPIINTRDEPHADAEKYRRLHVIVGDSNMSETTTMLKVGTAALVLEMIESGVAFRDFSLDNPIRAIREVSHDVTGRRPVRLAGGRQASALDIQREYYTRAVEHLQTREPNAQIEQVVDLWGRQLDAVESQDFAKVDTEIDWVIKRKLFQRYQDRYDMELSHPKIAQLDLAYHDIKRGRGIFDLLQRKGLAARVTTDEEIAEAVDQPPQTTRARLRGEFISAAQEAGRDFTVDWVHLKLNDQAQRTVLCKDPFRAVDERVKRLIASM

SMILES: NS(=O)(=O)c1ccc(NC(=S)NCCc2ccc(F)cc2)cc1 [Pi-2-26]
- IC50: 46.2 ± 7.96 nM
